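Each compound was tested at five concentrations against cells in 96-well plates for 48 hours. TGI is the concentration that stops growth completely.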
How the values were obtained:
Assay in all cases: NCI tumour cell line growth inhibition, 48 h
[1] = test system: A498 renal
[2] = test system: A549 NSCLC
[3] = test system: ACHN renal
[4] = test system: CCRF-CEM leukemia
[5] = test system: COLO 205 colon
[6] = test system: DLD-1 colon
[7] = test system: DMS 114 small cell lung
[8] = test system: DMS 273 small cell lung
[9] = test system: EKVX NSCLC
[10] = test system: HCC-2998 colon
[11] = test system: HCT-15 colon
[12] = test system: HL-60(TB) leukemia
[13] = test system: HOP-18 NSCLC
[14] = test system: HT29 colon
[15] = test system: IGROV1 ovarian
[16] = test system: K-562 leukemia
[17] = test system: KM12 colon
[18] = test system: KM20L2 colon
[19] = test system: LOX IMVI melanoma
[20] = test system: LXFL 529 NSCLC
[21] = test system: M19-MEL melanoma
[22] = test system: MALME-3M melanoma
[23] = test system: MOLT-4 leukemia
[24] = test system: NCI-H226 lung
[25] = test system: NCI-H23 lung
[26] = test system: NCI-H460 lung
[27] = test system: NCI-H522 lung
[28] = test system: OVCAR-3 ovarian
[29] = test system: OVCAR-4 ovarian
[30] = test system: OVCAR-5 ovarian
[31] = test system: OVCAR-8 ovarian
[32] = test system: RPMI-8226 leukemia
[33] = test system: RXF 393 renal
[34] = test system: RXF-631 renal
[35] = test system: SF-268 CNS
[36] = test system: SF-295 CNS
[37] = test system: SK-MEL-2 melanoma
[38] = test system: SK-MEL-28 melanoma
[39] = test system: SK-MEL-5 melanoma
[40] = test system: SK-OV-3 ovarian
[41] = test system: SN12C renal
[42] = test system: SNB-19 CNS
[43] = test system: SNB-75 CNS
[44] = test system: SNB-78 CNS
[45] = test system: SW-620 colon
[46] = test system: TK-10 renal
[47] = test system: U251 CNS
[48] = test system: UACC-257 melanoma
[49] = test system: UACC-62 melanoma
[50] = test system: UO-31 renal
[51] = test system: XF 498 CNS

Question: Which TGI [1] does the source give for `CCOC(=O)/C=C1/C(CCCOCc2ccccc2)C2CCCC23CC2(CCN13)OCCO2` (stereo unspecified) here?
Answer: 50.3 µM

Question: And the TGI [2]?
Answer: 63.9 µM

Question: And the TGI [3]?
Answer: 83.9 µM

Question: And the TGI [4]?
Answer: 64.4 µM

Question: And the TGI [5]?
Answer: 34.2 µM

Question: What about the TGI [6] of the same molecule?
Answer: 73.3 µM

Question: What about the TGI [7] of the same molecule?
Answer: 32.9 µM

Question: What about the TGI [8] of the same molecule?
Answer: 37.9 µM

Question: What about the TGI [9] of the same molecule?
Answer: > 100 µM

Question: What about the TGI [10] of the same molecule?
Answer: > 100 µM

Question: What about the TGI [11] of the same molecule?
Answer: 51.5 µM

Question: And the TGI [12]?
Answer: 30 µM

Question: What about the TGI [13] of the same molecule?
Answer: 50 µM

Question: What about the TGI [14] of the same molecule?
Answer: 45.4 µM

Question: What about the TGI [15] of the same molecule?
Answer: > 100 µM

Question: What about the TGI [16] of the same molecule?
Answer: 63.7 µM

Question: What about the TGI [17] of the same molecule?
Answer: 58 µM

Question: And the TGI [18]?
Answer: 56 µM

Question: What about the TGI [19] of the same molecule?
Answer: 37.9 µM

Question: What about the TGI [20] of the same molecule?
Answer: 90.2 µM

Question: What about the TGI [21] of the same molecule?
Answer: 40 µM

Question: What about the TGI [22] of the same molecule?
Answer: 33.9 µM

Question: And the TGI [23]?
Answer: 33.2 µM

Question: What about the TGI [24] of the same molecule?
Answer: 66.7 µM

Question: What about the TGI [25] of the same molecule?
Answer: 43.8 µM

Question: And the TGI [26]?
Answer: 47.1 µM

Question: And the TGI [27]?
Answer: 31.3 µM

Question: What about the TGI [28] of the same molecule?
Answer: 49.4 µM

Question: What about the TGI [29] of the same molecule?
Answer: > 100 µM

Question: And the TGI [30]?
Answer: > 100 µM

Question: What about the TGI [31] of the same molecule?
Answer: > 100 µM

Question: What about the TGI [32] of the same molecule?
Answer: 25 µM

Question: What about the TGI [33] of the same molecule?
Answer: 37.5 µM

Question: And the TGI [34]?
Answer: 94.6 µM

Question: And the TGI [35]?
Answer: > 100 µM

Question: What about the TGI [36] of the same molecule?
Answer: > 100 µM

Question: And the TGI [37]?
Answer: 36.9 µM

Question: What about the TGI [38] of the same molecule?
Answer: 51.3 µM

Question: What about the TGI [39] of the same molecule?
Answer: 34.8 µM

Question: And the TGI [40]?
Answer: 82.9 µM

Question: And the TGI [41]?
Answer: 86.8 µM

Question: What about the TGI [42] of the same molecule?
Answer: > 100 µM

Question: What about the TGI [43] of the same molecule?
Answer: 9.41 µM

Question: And the TGI [44]?
Answer: 85.8 µM

Question: And the TGI [45]?
Answer: > 100 µM

Question: And the TGI [46]?
Answer: > 100 µM

Question: What about the TGI [47] of the same molecule?
Answer: 51.4 µM

Question: And the TGI [48]?
Answer: 53.9 µM

Question: And the TGI [49]?
Answer: 50 µM

Question: What about the TGI [50] of the same molecule?
Answer: 64.5 µM

Question: What about the TGI [51] of the same molecule?
Answer: 26.8 µM
